# Tested on: 565726-208-R1-J5-PDC complex spheroids, growth inhibition
# Assay: Anticancer human tumor 565726-208-R1-J5-PDC patient-derived pancreatic adenocarcinoma cell line growth inhibition [RAS]
# Conditions: for IC50: curve of first compound; for viability, T/C: stronger effect = lower value
# How it was run: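 Tumour cells grown as complex spheroids with HUVEC endothelial cells and mesenchymal stem cells, treated with RAS pathway inhibitor combinations. Each agent spans half-log steps from near clinical Cmax, or 10 microM where Cmax is unknown.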
# 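Also: spheroids exposed to compounds for seven days before readout.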
# 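For viability, T/C in this document: 100% = DMSO vehicle control viability.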
compound,measurement,setting,value
CC1(C)CCC(Nc2ncc(C(F)(F)F)c(-c3c[nH]c4c(P(C)(C)=O)c(C#N)ccc34)n2)CN1 (configuration not stated) + CCn1c(-c2cccnc2C(C)OC)c2c3cc(ccc31)N1CCOC(CC(NC(=O)C(C(C)C)N(C)C(=O)C3(F)CCN(C(=O)C#CC(C)(C)N(C)C)CC3)C(=O)N3CCCC(N3)C(=O)OCC(C)(C)C2)C1,IC50,second compound 0.000949 µM,3.9 nM
same,IC50,second compound 0.003 µM,4.09 nM
same,IC50,second compound 0.00949 µM,3.98 nM
same,IC50,second compound 0.03 µM,3.25 nM
same,IC50,second compound 0.0949 µM,2.54 nM
same,IC50,second compound 0.3 µM,1.09 nM
same,"viability, T/C","second compound 0.000949 µM, first compound 0.000949 µM",86%
same,"viability, T/C","second compound 0.000949 µM, first compound 0.003 µM",54%
same,"viability, T/C","second compound 0.000949 µM, first compound 0.00949 µM",37.6%
same,"viability, T/C","second compound 0.000949 µM, first compound 0.03 µM",32.1%
same,"viability, T/C","second compound 0.000949 µM, first compound 0.0949 µM",32.2%
same,"viability, T/C","second compound 0.000949 µM, first compound 0.3 µM",29.5%
same,"viability, T/C","second compound 0.003 µM, first compound 0.000949 µM",89%
same,"viability, T/C","second compound 0.003 µM, first compound 0.003 µM",55%
same,"viability, T/C","second compound 0.003 µM, first compound 0.00949 µM",36.5%
same,"viability, T/C","second compound 0.003 µM, first compound 0.03 µM",29.2%
same,"viability, T/C","second compound 0.003 µM, first compound 0.0949 µM",29.5%
same,"viability, T/C","second compound 0.003 µM, first compound 0.3 µM",28.7%
same,"viability, T/C","second compound 0.00949 µM, first compound 0.000949 µM",83.2%
same,"viability, T/C","second compound 0.00949 µM, first compound 0.003 µM",55.4%
same,"viability, T/C","second compound 0.00949 µM, first compound 0.00949 µM",33.5%
same,"viability, T/C","second compound 0.00949 µM, first compound 0.03 µM",27.9%
same,"viability, T/C","second compound 0.00949 µM, first compound 0.0949 µM",26.9%
same,"viability, T/C","second compound 0.00949 µM, first compound 0.3 µM",27.6%
same,"viability, T/C","second compound 0.03 µM, first compound 0.000949 µM",76%
same,"viability, T/C","second compound 0.03 µM, first compound 0.003 µM",50.9%
same,"viability, T/C","second compound 0.03 µM, first compound 0.00949 µM",36.4%
same,"viability, T/C","second compound 0.03 µM, first compound 0.03 µM",29%
same,"viability, T/C","second compound 0.03 µM, first compound 0.0949 µM",28.6%
same,"viability, T/C","second compound 0.03 µM, first compound 0.3 µM",29.3%
same,"viability, T/C","second compound 0.0949 µM, first compound 0.000949 µM",69.3%
same,"viability, T/C","second compound 0.0949 µM, first compound 0.003 µM",46.7%
same,"viability, T/C","second compound 0.0949 µM, first compound 0.00949 µM",30%
same,"viability, T/C","second compound 0.0949 µM, first compound 0.03 µM",26.9%
same,"viability, T/C","second compound 0.0949 µM, first compound 0.0949 µM",29%
same,"viability, T/C","second compound 0.0949 µM, first compound 0.3 µM",32.9%
same,"viability, T/C","second compound 0.3 µM, first compound 0.000949 µM",52%
same,"viability, T/C","second compound 0.3 µM, first compound 0.003 µM",35.6%
same,"viability, T/C","second compound 0.3 µM, first compound 0.00949 µM",27.4%
same,"viability, T/C","second compound 0.3 µM, first compound 0.03 µM",26.7%
same,"viability, T/C","second compound 0.3 µM, first compound 0.0949 µM",27.8%
same,"viability, T/C","second compound 0.3 µM, first compound 0.3 µM",26.5%

# — PubChem BioAssay AID2060899 (Molecular Pharmacology Branch, DTP, NCI, 2025)
